Experimental data published in PubChem BioAssay (NCI).
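1) Cells in 96-well plates. 2) Compound, 48 h, 5 concentrations. 3) Linear interpolation between surrounding doses. 4) Unreached endpoint = highest concentration. The concentration for full growth arrest is given as TGI.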 Where a SMILES comes first, the peptide text is derived from it. The star is where a group is joined. Boc = CC(C)(C)OC(=O)*; Bn = c1ccc(C*)cc1

Key:
Test in all cases: NCI tumour cell line growth inhibition, 48 h
[1] = system: ACHN renal
[2] = system: BT-549 breast
[3] = system: HCT-116 colon
[4] = system: HS 578T breast
[5] = system: HT29 colon
[6] = system: MDA-MB-231 breast
[7] = system: SF-268 CNS
[8] = system: SF-539 CNS
[9] = system: SK-MEL-2 melanoma
[10] = system: SK-OV-3 ovarian
[11] = system: SN12C renal
[12] = system: UO-31 renal
[13] = system: A498 renal
[14] = system: CAKI-1 renal

SMILES	TGI [1] [µM]	TGI [2] [µM]	TGI [3] [µM]	TGI [4] [µM]	TGI [5] [µM]	TGI [6] [µM]	TGI [7] [µM]	TGI [8] [µM]	TGI [9] [µM]	TGI [10] [µM]	TGI [11] [µM]	TGI [12] [µM]	TGI [13] [µM]	TGI [14] [µM]
Cc1ccc(S(=O)(=O)NC(=O)NCC(N)=O)cc1	> 100	> 100	> 100	> 100	> 100	> 100	> 100	> 100	> 100	> 100	> 100	> 100	–	–
Cc1ccc2nc(-c3ccc(-c4nc5ccc(C)cc5o4)c(O)c3)oc2c1	> 100	–	> 100	> 100	–	> 100	> 100	> 100	> 100	> 100	> 100	> 100	> 100	–
C/C(=C(/C)c1cc[n+](C)cc1)c1cc[n+](C)cc1	> 75	–	> 75	–	> 75	–	> 75	> 75	> 75	> 75	> 75	> 75	> 75	> 75
O=C(CSc1nc2ccc(I)cc2c(=O)n1Cc1ccccc1)NN1C(=O)CSC1c1ccccc1 (centres undefined)	33.1	–	56.1	–	> 100	65.6	79.1	70.7	50.8	67.9	56.1	–	–	10.9
Cn1nc(S(N)(=O)=O)s/c1=N/S(=O)(=O)c1ccc(N)cc1	> 100	> 100	–	–	> 100	> 100	> 100	> 100	> 100	> 100	–	> 100	> 100	> 100
Brc1ccc(N=Nc2ccc3ccccc3n2)cc1	31.2	60.5	30.1	56.6	> 100	–	94	55.2	> 100	49.6	> 100	27.5	–	47
C/C(CC(=O)Nc1ccccc1)=N\NC(N)=S	–	–	> 100	–	> 100	–	> 100	> 100	> 100	> 100	–	> 100	–	–
O=C(/C=N/O)Nc1ccc(Cl)c(I)c1	85.2	–	25.5	–	> 100	–	69.2	–	31.3	56	63.9	33.1	–	45.2
Cc1cc(C)nc(NS(=O)(=O)c2ccc(Nc3nnc(/C=C/c4c(O)ccc5ccccc45)c(=O)n3N)cc2)n1	53.8	62.5	42	> 100	> 100	–	> 100	–	–	> 100	73.2	86.3	–	59.8
OCCSCC/C(=N\N=C(/CCSCCO)c1ccccc1)c1ccccc1	> 100	–	–	–	> 100	–	> 100	> 100	> 100	> 100	> 100	> 100	–	> 100
COC(=O)C(CC(C)C)NC(=O)CNC(=O)C(Cc1ccc(OCc2ccccc2)cc1)NC(=O)C(COCc1ccccc1)NC(=O)OC(C)(C)C (centres undefined) (Boc-S(Bn)Y(Bn)GL-OMe; configuration not given here)	> 100	> 100	> 100	> 100	> 100	> 100	> 100	> 100	–	> 100	> 100	> 100	–	> 100
CCC1(CC)C(=O)NN(C(=O)c2ccc(Cl)cc2)C1=O	> 100	> 100	> 100	> 100	> 100	> 100	> 100	–	> 100	> 100	> 100	> 100	–	> 100
COc1ccc(C(c2cc(OC)c(OC)c(OC)c2)N2C(=O)CCC2C(=O)O)cc1 (centres undefined)	> 100	–	> 100	> 100	> 100	> 100	> 100	52	> 100	> 100	> 100	> 100	> 100	> 100
CC1(C)N([O-])[N+](=O)C1(Br)c1ccccc1 (centres undefined)	> 100	–	> 100	> 100	> 100	> 100	> 100	> 100	> 100	> 100	> 100	> 100	–	> 100
CC(=O)c1c2c(cc3c1CC1(C3)Cc3cc4c(c(C(C)=O)c3C1)CCCC4)CCCC2	> 100	–	> 100	> 100	> 100	> 100	–	> 100	83.2	> 100	> 100	0.314	> 100	–
COC(=O)C1=C(C(=O)OC)C(OO)(c2ccccc2)OC1=O (centres undefined)	> 100	> 100	> 100	–	> 100	> 100	–	> 100	> 100	> 100	> 100	> 100	–	> 100
COc1ccc2oc(=O)c(-c3csc(-c4ccccc4)n3)cc2c1	> 100	50.2	> 100	94.5	> 100	> 100	71.2	31.2	> 100	38	–	47.1	–	> 100
Cc1ccc(S(=O)(=O)OI(O)CC(F)(F)F)cc1	> 100	> 100	> 100	–	> 100	> 100	> 100	> 100	> 100	> 100	> 100	> 100	> 100	> 100
CC(=O)OC1CC2C(C)(C)OC(=O)CC(OC(C)=O)[C@]2(C)C2CCC3(C)C(=CCC3c3ccoc3)[C@]12C (some centres undefined)	> 100	–	58.6	–	39.3	–	> 100	93.3	25.1	54.1	> 100	> 100	> 100	> 100
